# Results published in the RepoRT retention time repository (doi:10.1016/j.chroma.2015.11.014).
# Assay: RP, Agilent ZORBAX Eclipse Plus C18, 150 × 2.1 mm, 3.5 µm, 40 °C, 0.3 mL/min, estimated dead time 1.1 min; A: water + 0.1% formic acid; B: acetonitrile + 0.1% formic acid; gradient (min/%B) 0/2 1/2 2/20 16.5/98 22/98
# Conditions: stereoisomer not certain
row,Compound,LC retention time
1,CN1C(C)(C)CC(OC(=O)CCCCCCCCC(=O)OC2CC(C)(C)N(C)C(C)(C)C2)CC1(C)C,6.48 min
2,C#CC1(O)CCC2C3CCc4cc(OC)ccc4C3CCC21C (centres undefined),14.5 min
3,Nc1ccc(O)c(C(=O)O)c1,2.18 min
4,CCc1cccc(C)c1N(C(=O)CS(=O)(=O)O)C(C)COC (centres undefined),8.25 min
5,CC[N+](CC)(CC([O-])=Nc1c(C)cccc1C)Cc1ccccc1,7.58 min
6,CCN1C=CN(C)C1,1.34 min
7,C=C(OCC)[P+](c1ccccc1)(c1ccccc1)c1ccccc1,9.3 min
8,CC(=O)Nc1ccc(S(=O)(=O)Nc2cc(C)on2)cc1,7.41 min
9,COC1C(O)CC(=O)OC(C)CC=CC=CC(OC2CCC(N(C)C)C(C)O2)C(C)CC(CC=O)C1OC1OC(C)C(OC2CC(C)(O)C(O)C(C)O2)C(N(C)C)C1O (centres undefined),5.77 min
10,O=c1cc(-c2ccccc2)oc2cc(O)cc(O)c12,11 min
11,C#CC1(O)CCC2C3CCC4=CC(=O)CCC4C3CCC21CC (centres undefined),12.1 min
12,c1ccc2nc3ccccc3cc2c1,5.78 min
13,NC(=O)N1c2ccccc2C(O)C(O)c2ccccc21 (centres undefined),6.66 min
14,O=C(O)C(c1ccccc1)C1CCCCN1 (centres undefined),4.91 min
15,CC(=O)CCCCn1c(=O)c2c(ncn2C)n(C)c1=O,6.77 min
16,CN1C(C(=O)Nc2ccccn2)=C(O)c2sccc2S1(=O)=O,7.36 min
17,O=C(C1CCCCC1)N1CC(=O)N2CCc3ccccc3C2C1 (centres undefined),10.8 min
18,Cn1cnc2c(=O)[nH]c(N)nc21,2.43 min
19,Nc1ccc(S(=O)(=O)Nc2nccs2)cc1,5.37 min
20,CC(Cc1ccc(C(C)(C)C)cc1)CN1CC(C)OC(C)C1 (centres undefined),9.53 min

row,Compound,LC retention time
1,CC(CC(C)(C)C)CP(=O)(O)CC(C)CC(C)(C)C (centres undefined),14.4 min
2,CCCCCCCCOS(=O)(=O)O,9.59 min
3,CCCCCCCCCCCCOCC[N+](C)(C)Cc1ccccc1,12.7 min
4,O=C(O)c1ccccc1O,7.89 min
5,COc1ccc(C(C[N+](C)(C)[O-])C2(O)CCCCC2)cc1 (centres undefined),7.25 min
6,Cc1c(N(C)C)c(=O)n(-c2ccccc2)n1C,4.71 min
7,CC(=O)C[P+](c1ccccc1)(c1ccccc1)c1ccccc1,7.28 min
8,CC(O)C(=O)N(C)c1ccccc1 (centres undefined),6.76 min
9,CNCC1CCCCC1(O)c1cccc(OC)c1 (centres undefined),6.25 min
10,CCCN(CCC)C(=O)SCc1ccccc1,15.5 min
11,CCCCCCCCCC(=O)N(C)C,13.6 min
12,NCC1(CC(=O)O)CCCCC1,4.88 min
13,CNC(=O)Oc1cccc2c1OC(C)(C)C2,9.75 min
14,NC(=O)N1c2ccccc2C=Cc2cc(O)ccc21,7.48 min
15,CC(=O)Nc1c(C)n(C)n(-c2ccccc2)c1=O,5.59 min
16,CC1(C)NC(=O)NC1=O,3.47 min
17,CC(=O)C1(O)CCC2C3CC(C)C4=CC(=O)CCC4(C)C3CCC21C (centres undefined),12.5 min
18,COC(=O)C1=C(C)NC(C)=C(C(=O)OC)C1c1ccccc1[N+](=O)[O-],10.9 min
19,CCN(CC)C(=O)c1cccc(C)c1,10.4 min
20,Cc1noc(NS(=O)(=O)c2ccc(N)cc2)c1C,7.56 min

row,Compound,LC retention time
1,COC(=O)C1CCC(=O)N1 (centres undefined),4.58 min
2,CCCCCCCCCCCCCCN(C)C,11.4 min
3,CCN(Cc1cccc(S(=O)(=O)O)c1)c1ccc(C(=C2C=CC(=[N+](CC)Cc3cccc(S(=O)(=O)O)c3)C=C2)c2ccccc2S(=O)(=O)[O-])cc1,7.08 min
4,CCCCCCCCCCCCCCCCCCCC[N+](C)(C)C,15.7 min
5,CNCCC(Oc1cccc2ccccc12)c1cccs1 (centres undefined),8.43 min
6,CCN1CCCC1CNC(=O)c1cc(S(=O)(=O)CC)c(N)cc1OC (centres undefined),5.57 min
7,COc1ccc(C(=O)c2ccc(OC)cc2O)c(O)c1,12.7 min
8,CCCCOP(=O)(O)OCCCC,8.01 min
9,CC(C)(c1ccc(OCC(O)CO)cc1)c1ccc(OCC(O)CO)cc1 (centres undefined),8.23 min
10,COc1ccc(C(=O)c2ccccc2)c(O)c1,13.5 min
11,Nc1nc(NC2CC2)c2ncn(C3C=CC(CO)C3)c2n1 (centres undefined),5.09 min
12,COP(=O)(NC(C)=O)SC (centres undefined),4.5 min
13,Cn1c(=O)[nH]c(=O)c2[nH]cnc21,4.5 min
14,COC(=O)CCCCCCCCC(=O)OC1CC(C)(C)N(C)C(C)(C)C1,8.34 min
15,Cc1c(O)c(=O)n(-c2ccccc2)n1C,6.83 min
16,c1ccc(P(=N[P+](c2ccccc2)(c2ccccc2)c2ccccc2)(c2ccccc2)c2ccccc2)cc1,12.3 min
17,O=C(c1ccccc1)c1ccccc1O,13 min
18,CC(C)NCC(O)c1ccc(NS(C)(=O)=O)cc1 (centres undefined),4.58 min
19,CSc1nc2ccccc2s1,12.2 min
